Experimental data from US20080249042A1, “All-Trans-Retinol: All-Trans-13,14-Dihydroretinol Saturase and Methods of Its Use” (UNIVERSITY OF WASHINGTON, priority 2004, published 2008).

Columns and labels:
mouse RetSat = biological target: T1, mouse RetSat (Mus musculus, UniProt Q64FW2); conditions: earlier report, Moise et al. 2004; cited from earlier work
T1 construct: expressed in transfected cells
T1 sequence (Q64FW2 26-609): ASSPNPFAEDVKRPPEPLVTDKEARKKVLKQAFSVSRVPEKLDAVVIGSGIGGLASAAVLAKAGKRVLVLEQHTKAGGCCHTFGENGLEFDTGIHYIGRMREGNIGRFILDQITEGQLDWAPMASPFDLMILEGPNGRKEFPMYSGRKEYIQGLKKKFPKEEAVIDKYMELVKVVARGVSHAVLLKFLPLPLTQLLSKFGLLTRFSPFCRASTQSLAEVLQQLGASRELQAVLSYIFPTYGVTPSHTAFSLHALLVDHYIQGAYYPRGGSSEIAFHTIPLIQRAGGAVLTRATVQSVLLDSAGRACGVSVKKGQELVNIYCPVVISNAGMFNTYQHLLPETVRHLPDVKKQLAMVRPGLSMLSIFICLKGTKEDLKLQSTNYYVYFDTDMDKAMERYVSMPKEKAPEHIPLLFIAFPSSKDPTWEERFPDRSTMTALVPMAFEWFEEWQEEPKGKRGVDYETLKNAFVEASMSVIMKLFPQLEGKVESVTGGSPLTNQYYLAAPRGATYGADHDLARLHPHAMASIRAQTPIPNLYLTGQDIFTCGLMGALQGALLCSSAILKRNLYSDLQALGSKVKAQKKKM

tomato CRTISO = biological target: T2, tomato CRTISO (Solanum lycopersicum, UniProt Q8S4R4); assay: CRTISO activity in transfected HEKK cells; type: cell-based; conditions: CRTISO-expressing cells, overnight, in the dark
T2 construct: expressed in transfected cells
T2 sequence (Q8S4R4 with tags, fused parts or gaps): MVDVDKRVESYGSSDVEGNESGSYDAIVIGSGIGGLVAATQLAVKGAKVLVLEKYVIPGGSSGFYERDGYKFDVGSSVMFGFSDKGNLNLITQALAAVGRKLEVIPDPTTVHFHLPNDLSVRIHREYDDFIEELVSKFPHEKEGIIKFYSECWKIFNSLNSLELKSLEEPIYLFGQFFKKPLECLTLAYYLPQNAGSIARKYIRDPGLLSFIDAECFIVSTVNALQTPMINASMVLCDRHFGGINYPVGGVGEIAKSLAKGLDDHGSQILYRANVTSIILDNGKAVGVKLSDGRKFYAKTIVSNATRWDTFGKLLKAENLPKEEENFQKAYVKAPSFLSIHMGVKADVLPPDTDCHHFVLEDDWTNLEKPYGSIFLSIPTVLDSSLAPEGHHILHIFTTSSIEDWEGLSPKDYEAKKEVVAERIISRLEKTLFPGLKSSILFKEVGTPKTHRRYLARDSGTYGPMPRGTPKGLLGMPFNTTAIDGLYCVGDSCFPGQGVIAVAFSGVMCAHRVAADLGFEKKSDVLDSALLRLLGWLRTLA
Procedure: 7Z,9Z,9′Z,7′Z-Tetra-cis-tycopene purification and reverse-phase HPLC analysis of carotenoids. Carotenoid extraction and analysis were performed under dim red light. One gram from the fruit of a tangerine tomato was freeze-thawed three times and extracted with 2 ml PBS, 2 ml of ethanol, and 6 ml of hexane with the aid of a douncer. The organic phase was dried and resuspended in ethanol/tetrahydrofuran (9:1), and examined by reverse-phase HPLC System I (Prontosil, 200-3-C30, 3 μm, 4.6 mm×250 mm, Bischoff Chromatography, Leonberg, Germany) with a mobile phase of 75% tert-butyl methyl ether/25% methanol and a flow rate of 1 ml/min. More than 90% of the extract consisted of 7Z,9Z,9′Z,7′Z-tetra-cis-lycopene identified based on its published UV/VIS absorption spectrum in hexane with the following characteristics: shoulder at λ=417 nm, ε=90,000 M^−1cm^−1, λmax=437 nm, ε=105,000 M−1 cm^−1, shoulder at λ=461 nm ε=70,000 M^−1cm^−1. Bradford, Anal Biochem 72:248-254, 1976.
Enzyme assays of RetSat and CRTISO-catalyzed reactions. For enzyme assay, cells were seeded in six-well plates and expression of RetSat or CRTISO was induced with 1 μg/ml tetracycline 48 hr prior to analysis. […] For retinol and dihydroretinol analysis the methanol:water mixture was extracted with two volumes of hexane, then the organic phase was dried, resuspended in hexane, and analyzed by normal-phase HPLC. […]

| Compound | Saturation by RetSat (mouse RetSat) | Conversion by CRTISO (substrate activity) (tomato CRTISO) |
| --- | --- | --- |
| CC1=C(/C=C/C(C)=C/C=C/C(C)=C/C(=O)O)C(C)(C)CCC1 [all-trans-RA, all-trans-retinoic acid, reference compound] | does not saturate | – |
| CC1=C(/C=C/C(C)=C/C=C/C(C)=C/CO)C(C)(C)CCC1 [all-trans-ROL, all-trans-retinol] | – | no saturase activity |
